In article PMC7721589, “Synthesis and structure-activity relationships for tetrahydroisoquinoline-based inhibitors of Mycobacterium tuberculosis” (Bioorganic & Medicinal Chemistry, 2020):
In brackets after ≈: the same amount, converted by molar mass. Where two headings read alike, the source gives them in different places.

Columns and labels:
[1] = tested on: Vero green monkey-derived epithelial kidney cells; assay: Mammalian cytotoxicity in Vero cells; assay type: cell-based; conditions: Table 1; for IC50: Chlorocebus sabaeus
[2] = Stability in CDCl3 solution; assay type: physicochemical; conditions: over 1–2 days
Source text: Note: The X = OMe compounds 8 and 9 were unstable in CDCl3 solution over 1–2 days.

M.tb strain H37Rv [3] = assay: MIC against M.tb H37Rv under aerobic (replicating; MABA) conditions; assay type: cell-based, Mycobacterium tuberculosis; conditions: for MIC MABA: MIC90, Table 1; for MIC: Mycobacterium tuberculosis, MIC90, Table 1, read-out: MIC MABA
M.tb strain H37Rv [4] = assay: MIC against M.tb H37Rv under non-replicating (LORA) conditions; conditions: for MIC LORA: MIC90, Table 1
[5] = mouse, microsomes
[6] = human, microsomes
[7] = target: M. smegmatis ATP synthase (Mycolicibacterium smegmatis, UniProt A0R205+A0R206); assay: Inhibition of mycobacterial ATP synthase; assay type: biochemical; conditions: for IC50: read-out: M. smeg ATPsynth IC50; for IC50 / M. smeg ATPsynth IC50: M. smegmatis ATP synthase; for selectivity over the human enzyme: M. smegmatis vs human mitochondrial ATP synthase
[8] = Microsomal clearance in mouse liver microsomes; note: unit not given here
[9] = Microsomal clearance in human liver microsomes; note: unit not given here
[10] = target: human mitochondrial ATP synthase (Homo sapiens, UniProt P00846+P05496); assay: Inhibition of human mitochondrial ATP synthase; assay type: biochemical
Chain of human mitochondrial ATP synthase (P05496 62-136): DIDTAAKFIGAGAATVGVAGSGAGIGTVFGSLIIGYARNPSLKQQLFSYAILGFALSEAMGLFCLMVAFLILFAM
Chain of human mitochondrial ATP synthase (P00846 whole entry): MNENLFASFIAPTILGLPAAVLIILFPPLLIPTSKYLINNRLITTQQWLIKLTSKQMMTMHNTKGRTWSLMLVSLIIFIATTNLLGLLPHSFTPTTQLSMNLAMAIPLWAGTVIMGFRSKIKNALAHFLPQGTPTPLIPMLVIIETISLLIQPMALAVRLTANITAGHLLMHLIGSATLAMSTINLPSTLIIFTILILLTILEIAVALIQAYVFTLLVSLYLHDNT
Chain of human mitochondrial ATP synthase (P06576 48-529, further chain): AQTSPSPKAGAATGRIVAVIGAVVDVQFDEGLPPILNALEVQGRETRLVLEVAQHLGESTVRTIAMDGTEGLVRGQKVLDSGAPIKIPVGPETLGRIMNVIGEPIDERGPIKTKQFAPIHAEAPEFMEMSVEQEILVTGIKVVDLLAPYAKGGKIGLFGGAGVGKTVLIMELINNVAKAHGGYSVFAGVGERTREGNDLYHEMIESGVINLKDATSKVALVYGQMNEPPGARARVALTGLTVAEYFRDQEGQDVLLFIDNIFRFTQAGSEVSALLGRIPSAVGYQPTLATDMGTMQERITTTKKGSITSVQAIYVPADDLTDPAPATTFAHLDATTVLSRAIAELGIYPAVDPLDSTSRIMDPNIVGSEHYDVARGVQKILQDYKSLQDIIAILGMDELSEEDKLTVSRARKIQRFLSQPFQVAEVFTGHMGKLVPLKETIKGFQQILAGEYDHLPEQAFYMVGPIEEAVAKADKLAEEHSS
Chain of human mitochondrial ATP synthase (P25705 44-553, further chain): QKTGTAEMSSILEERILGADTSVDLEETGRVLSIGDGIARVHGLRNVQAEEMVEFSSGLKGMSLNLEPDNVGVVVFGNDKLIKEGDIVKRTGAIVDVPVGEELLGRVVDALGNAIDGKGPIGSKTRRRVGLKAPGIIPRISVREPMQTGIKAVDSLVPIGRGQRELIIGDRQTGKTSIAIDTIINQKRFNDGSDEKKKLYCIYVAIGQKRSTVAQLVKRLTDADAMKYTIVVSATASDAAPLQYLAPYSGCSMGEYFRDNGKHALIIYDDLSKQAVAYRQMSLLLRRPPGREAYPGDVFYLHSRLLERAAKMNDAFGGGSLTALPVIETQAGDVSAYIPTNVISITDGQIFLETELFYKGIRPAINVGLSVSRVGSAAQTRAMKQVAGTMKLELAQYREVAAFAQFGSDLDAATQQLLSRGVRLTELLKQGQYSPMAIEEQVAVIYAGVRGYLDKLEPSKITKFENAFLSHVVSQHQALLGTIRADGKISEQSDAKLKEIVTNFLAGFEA
Chain of human mitochondrial ATP synthase (P30049 23-168, further chain): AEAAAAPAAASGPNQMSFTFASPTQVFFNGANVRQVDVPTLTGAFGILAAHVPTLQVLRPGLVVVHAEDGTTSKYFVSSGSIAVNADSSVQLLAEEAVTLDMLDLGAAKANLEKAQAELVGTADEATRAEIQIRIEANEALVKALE
Chain of human mitochondrial ATP synthase (P36542 26-298, further chain): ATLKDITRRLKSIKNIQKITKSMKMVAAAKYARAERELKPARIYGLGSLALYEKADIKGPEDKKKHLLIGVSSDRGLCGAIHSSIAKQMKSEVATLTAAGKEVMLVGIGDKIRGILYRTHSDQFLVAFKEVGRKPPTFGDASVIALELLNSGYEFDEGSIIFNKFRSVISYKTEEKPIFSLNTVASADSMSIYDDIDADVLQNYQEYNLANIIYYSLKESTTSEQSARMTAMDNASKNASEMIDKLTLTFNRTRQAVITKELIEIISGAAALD

Row | Molecule | IC50 VERO [1] | MIC MABA (M.tb strain H37Rv [3]) | MIC LORA (M.tb strain H37Rv [4]) | IC50 [1] | MIC (M.tb strain H37Rv [3]) | MLM Clint [5] | HLM Clint [6] | IC50 [7] | other results
1 | N-(5-(3,5-bis(trifluoromethyl)phenyl)pyridin-2-yl)-5-methoxy-8-(4-methylpiperazin-1-yl)-3,4-dihydroisoquinoline-2(1H)-carboxamide [Compound 9] | 19 µg/mL | 7.9 µg/mL | 12 µg/mL | – | – | – | – | – | stability in CDCl3 solution [2]: unstable
2 | Cc1ccc(N2CCN(C)CC2)c2c1CCN(C(=O)N1CCC(Oc3ccc(OC(F)(F)F)cc3)CC1)C2 [Compound 48, (5-Methyl-8-(4-methylpiperazin-1-yl)-3,4-dihydroisoquinolin-2(1H)-yl)(4-(4-(trifluoromethoxy)phenoxy)piperidin-1-yl)methanone] | – | – | 3.9 µg/mL (≈ 7.32 µM) | 19 µg/mL (≈ 35.7 µM) | 6.4 µg/mL (≈ 12 µM) | 40 | 48 | – | –
3 | Cc1ccc(N2CCN(C)CC2)c2c1CCN(C(=O)Nc1ccc(-c3cc(C(F)(F)F)cc(C(F)(F)F)c3)cn1)C2 [Compound 26, N-(5-(3,5-Bis(trifluoromethyl)phenyl)pyridin-2-yl)-5-methyl-8-(4-methylpiperazin-1-yl)-3,4-dihydroisoquinoline-2(1H)-carboxamide] | – | – | 5.3 µg/mL (≈ 9.18 µM) | > 32 µg/mL | 3.1 µg/mL (≈ 5.37 µM) | – | – | 24.2 µM | melting point: 114 to 117 °C
4 | N-(5-(4-(tert-butyl)phenyl)pyridin-2-yl)-5-methyl-8-(4-methylpiperazin-1-yl)-3,4-dihydroisoquinoline-2(1H)-carboxamide [Compound 7] | 18 µg/mL | 1.4 µg/mL | 3.4 µg/mL | – | – | – | – | – | MLM Clint [8]: 56; HLM Clint [9]: 41
5 | N-(5-(4-chloro-2-methylphenyl)pyridin-2-yl)-5-methyl-8-(4-methylpiperazin-1-yl)-3,4-dihydroisoquinoline-2(1H)-carboxamide [Compound 6] | 22 µg/mL | 1.9 µg/mL | 2.4 µg/mL | – | – | – | – | – | MLM Clint [8]: 35; M. smeg ATPsynth IC50 [7]: 5.5 µg/mL; Mamm. ATPsynth IC50 [10]: 23 µg/mL; HLM Clint [9]: 22
6 | CCc1ccc(N2CCN(C)CC2)c2c1CCN(C(=O)Nc1ccc(-c3ccc(C(F)(F)F)cc3)cn1)C2 [Compound 27, 5-Ethyl-8-(4-methylpiperazin-1-yl)-N-(5-(4-(trifluoromethyl)phenyl)pyridin-2-yl)-3,4-dihydroisoquinoline-2(1H)-carboxamide] | – | – | 0.9 µg/mL (≈ 1.72 µM) | 12 µg/mL (≈ 22.9 µM) | 1 µg/mL (≈ 1.91 µM) | 810 | 107 | 4.2 µM | –
7 | Cc1cc(Cl)ccc1-c1ccc(NC(=O)N2CCc3c(F)ccc(N4CCN(C)CC4)c3C2)nc1 [Compound 42, N-(5-(4-Chloro-2-methylphenyl)pyridin-2-yl)-5-fluoro-8-(4-methylpiperazin-1-yl)-3,4-dihydroisoquinoline-2(1H)-carboxamide] | – | – | 5.4 µg/mL (≈ 10.9 µM) | 12 µg/mL (≈ 24.3 µM) | 1.2 µg/mL (≈ 2.43 µM) | 65 | 50 | 3.64 µM | melting point: 98 to 101 °C; selectivity over the human enzyme [7]: 9.4 fold
8 | 2-((5-(4-Chlorophenyl)pyridin-2-yl)methyl)-8-(4-methylpiperazin-1-yl)-5-methyl-1,2,3,4-tetrahydroisoquinoline [Compound 12] | 14 µg/mL | 0.79 µg/mL | 5.2 µg/mL | – | – | – | – | – | MLM Clint [8]: 239; MIC (µg/mL) MABA (M.tb strain H37Rv [3]; MIC90, Table 2): 0.79 µg/mL; MIC (µg/mL) LORA (M.tb strain H37Rv [4]; MIC90, Table 2): 5.2 µg/mL; HLM Clint [9]: 92
9 | Cc1ccc(N2CCN(C)CC2)c2c1CCN(C(=O)N1CCC(Oc3ccccc3C(F)(F)F)CC1)C2 [Compound 49, (5-Methyl-8-(4-methylpiperazin-1-yl)-3,4-dihydroisoquinolin-2(1H)-yl)(4-(2-(trifluoromethyl)phenoxy)piperidin-1-yl)methanone] | – | – | 7.3 µg/mL (≈ 14.1 µM) | 11 µg/mL (≈ 21.3 µM) | 7.7 µg/mL (≈ 14.9 µM) | – | – | 12 µM | –
10 | COc1ccc(N2CCN(C)CC2)c2c1CCN(C(=O)Nc1ccc(-c3ccc(Cl)cc3C)cn1)C2 [Compound 8, N-(5-(4-Chloro-2-methylphenyl)pyridin-2-yl)-5-methoxy-8-(4-methylpiperazin-1-yl)-3,4-dihydroisoquinoline-2(1H)-carboxamide] | 12 µg/mL (≈ 23.7 µM) | 1.9 µg/mL (≈ 3.75 µM) | 3.6 µg/mL (≈ 7.11 µM) | – | – | – | – | – | MLM Clint [8]: 42; stability in CDCl3 solution [2]: unstable; M. smeg ATPsynth IC50 [7]: 4.2 µg/mL; Mamm. ATPsynth IC50 [10]: 16 µg/mL; HLM Clint [9]: 17
11 | CN1CCN(c2cccc3c2CN(Cc2ccc(-c4ccc(Cl)cc4)cn2)CC3)CC1 [Compound 10, 2-((5-(4-Chlorophenyl)pyridin-2-yl)methyl)-8-(4-methylpiperazin-1-yl)-1,2,3,4-tetrahydroisoquinoline] | – | – | 16 µg/mL (≈ 37 µM) | 16 µg/mL (≈ 37 µM) | 1.8 µg/mL (≈ 4.16 µM) | 238 | 121 | 16.6 µM | selectivity over the human enzyme [7]: > 70 fold
12 | COc1ccc(N2CCN(C)CC2)c2c1CCN(C(=O)Nc1ccc(-c3ccc(Cl)cc3C)cn1)C2 [Compound 35, N-(5-(4-chloro-2-methylphenyl)pyridin-2-yl)-5-methoxy-8-(4-methylpiperazin-1-yl)-3,4-dihydroisoquinoline-2(1H)-carboxamide] | – | – | 3.1 µg/mL (≈ 6.13 µM) | 12 µg/mL (≈ 23.7 µM) | 1.9 µg/mL (≈ 3.75 µM) | – | – | 12.4 µM | melting point: 99 to 101 °C
13 | CN1CCN(c2cccc3c2CN(C(=O)Nc2ccc(-c4ccc(OC(F)(F)F)cc4)cn2)CC3)CC1 [Compound 23, 8-(4-Methylpiperazin-1-yl)-N-(5-(4-(trifluoromethoxy)phenyl)pyridin-2-yl)-3,4-dihydroisoquinoline-2(1H)-carboxamide] | – | – | 3.9 µg/mL (≈ 7.62 µM) | 14 µg/mL (≈ 27.4 µM) | 3.6 µg/mL (≈ 7.04 µM) | – | – | 12.1 µM | selectivity over the human enzyme [7]: > 80 fold
14 | COc1ccc(N2CCN(C)CC2)c2c1CCN(C(=O)Nc1ccc(-c3ccc(Cl)cc3Cl)cn1)C2 [Compound 36, N-(5-(2,4-Dichlorophenyl)pyridin-2-yl)-5-methoxy-8-(4-methylpiperazin-1-yl)-3,4-dihydroisoquinoline-2(1H)-carboxamide] | – | – | – | > 32 µg/mL | 1.9 µg/mL (≈ 3.61 µM) | 584 | 48 | 5.7 µM | melting point: 108 to 111 °C
